We go through 9 compounds from patent publication US9458145B2, “Benzimidazole derivatives as bromodomain inhibitors” (Gilead Sciences, Inc., priority 2013, dated 2016).

SMILES strings stand for the structures. Like-named read-outs stand apart in the source and are kept apart here.

The target of one test is BRD4-2 (Homo sapiens (Human), UniProt O60885). The experiment in a line: BRD4-2 Ligand KI assay (TR-FRET, Cy5 labeled ligand displacement). Type of test: binding. As for the experimental part: (§1) BRD4-1 Ligand KI and BRD4-2 Ligand KI Assays
(§2) Binding of the two tandem bromodomains, BRD4-I and BRD4-2, to a Cy5 labeled probe/ligand (Compound 1020-501) were measured using a homogeneous time resolved fluorescence resonance energy transfer (TR-FRET) assay.
(§3) The labeled ligand specifically binds BRD4-1 and BRD4-2 and can be displaced by a small molecule inhibitor that shares a similar or overlapping binding site. BRD4-I and BRD4-2 were expressed and purified from Escherichia coli as N-terminal His6, tagged proteins. A Eu-cryptate labeled anti-His antibody (Perkin Elmer) was used to specifically bind BRD4. […] Assays were performed in 50 mM Hepes (pH 7.5), 150 mM NaCl, 0.1 mg/ml BSA, 0.01% (v/v) Brij, 0.5% (v/v) DMSO and 10 nM labeled ligand at the following concentrations for each BRD4 isoform: 2 nM BRD4-1 and 0.5 nM BRD4-2. After an assay reaction time of 60 minutes at 25° C., binding was measured with 2 nM Eu-cryptate labeled anti-His antibody. TR-FRET signal was detected on an Envision plate reader (Ex: 320 nm; Em: 615/665 nm; 100 μs delay and 200 μs read window). […] All IC50 values represent geometric mean values of a minimum of four determinations. The IC50 values were converted to Ki values (dissociation constant for BRD4-inhibitor complex) using the Cheng and Prusoff equation for a competitive inhibitor mode of action. These assays generally produced results within 3-fold of the reported mean.
In general terms: Time-resolved FRET reads energy transfer from a long-lived donor to a nearby acceptor.

For another test, the target named is BRD4-1 (Homo sapiens (Human), UniProt O60885). The experiment in a line: BRD4-1 Ligand KI assay (TR-FRET, Cy5 labeled ligand displacement). Type of test: binding. Here is the method: as §1, §2, §3
The subject of a further test is MT-4 cells. The experiment in a line: MT-4 proliferation assay. Type of test: cell-based, human. The following applies: Homo sapiens, MT4, 120 h; Table 1; 5 days, Cell Titer Glo; method text calls it EC50; read-out: MT4 Assay, (IC50). As for the experimental part: MT-4 Proliferation Assay:
Compounds were tested in a standardized high-throughput 384-well assay format. Each compound was serially diluted 3-fold in 100% DMSO in polypropylene 384-well plates using a Biomek FX Workstation, and 0.4 μL compound added to an assay plate containing 40 μL RPMI media. Compounds were arranged in a horizontal pattern, with 10 concentrations per compound, and 8 compounds added per plate. Due to low DMSO tolerability, the final DMSO concentration never exceeded 0.5% (v/v). Each assay plate contained 10 μM Puromycin and 0.5% DMSO in RPMI-1640 as positive and negative controls respectively. MT-4 cells (HTLV-1 transformed, human T lymphoblastoid cells, NIH Aids Reagent program) were added in volumes of 35 μL per well and 2,000 cells per well using a Biotek uFlow Workstation (Biotek, Winooski, Vt.), and the plates subsequently incubated for 5 days at 37° C. in an incubator set at 5% CO2 and 90% humidity.
After 5 days, 22 μL Cell Titer Glo (Promega) was added to the assay plates with a Biotek uFlow Workstation. Plates were subsequently placed on a Perkin Elmer Envision Plate Reader for 5 minutes before the luminescence signal was read.
For orientation: ATP-based viability assays read luminescence as a measure of living cells.

The mark [1] stands for this setting: 0.5 nM BRD4-2, 10 nM labeled ligand, IC50 converted to Ki by Cheng and Prusoff.
The mark [2] stands for this setting: 2 nM BRD4-1, 10 nM labeled ligand, IC50 converted to Ki by Cheng and Prusoff.

`Cc1noc(C)c1-c1cc(C(O)(c2ccccn2)c2ncccn2)c2nc(C3CC3)[nH]c2c1` (racemic) [Compound 1020-239, (R) and (S)-(2-cyclopropyl-6-(3,5-dimethylisoxazol-4-yl)-1H-benzo[d]imidazol-4-yl)(pyridin-2-yl)(pyrimidin-2-yl)methanol]: the IC50 at BRD4-2 is 6 nM; on BRD4-1, 5.9 nM.
`Cc1noc(C)c1-c1cc(C(O)(c2cccnn2)C2CCCO2)c2nc(C3CC3)[nH]c2c1` (single isomer, unassigned) [Compound 1020-289, (2-cyclopropyl-6-(3,5-dimethylisoxazol-4-yl)-1H-benzo[d]imidazol-4-yl)(pyridazin-3-yl)(tetrahydrofuran-2-yl)methanol]: the IC50 at BRD4-2 (setting [1]) and at BRD4-1 (setting [2]) was 2 nM each time.
For `Cc1noc(C)c1-c1cc(C(O)(c2cccnn2)C2CCC(C)(C)O2)c2nc(C3CC3)[nH]c2c1` (single isomer, unassigned) [Compound 1020-298, (2-cyclopropyl-6-(3,5-dimethylisoxazol-4-yl)-1H-benzo[d]imidazol-4-yl)(5,5-dimethyltetrahydrofuran-2-yl)(pyridazin-3-yl)methanol], the IC50 on BRD4-2 (setting [1]) is 3.6 nM; at BRD4-1 (setting [2]), 5.4 nM.
`Cc1noc(C)c1-c1cc(C(O)C2CCCC2)c2nc(C3CC3)[nH]c2c1` (stereo not drawn) [Compound 1020-121, Cyclopentyl(2-cyclopropyl-6-(3,5-dimethylisoxazol-4-yl)-1H-benzo[d]imidazol-4-yl)methanol]: the IC50 in the test with MT-4 cells is 42.8 nM.
On the same count and under the same terms, the value for `CCC(O)(CC)c1cc(-c2c(C)noc2C)cc2c1nc(C1CC1)n2C` [Compound 1020-132, 3-(2-Cyclopropyl-6-(3,5-dimethylisoxazol-4-yl)-1-methyl-1H-benzo[d]imidazol-4-yl)pentan-3-ol] was 544 nM.
`Cc1noc(C)c1-c1cc(N2C(=O)CCC2C)c2nc(C3CC3)[nH]c2c1` (stereo not drawn) [Compound 1020-136, 1-(2-Cyclopropyl-6-(3,5-dimethylisoxazol-4-yl)-1H-benzo[d]imidazol-4-yl)-5-methylpyrrolidin-2-one]: in the test with MT-4 cells, the IC50 is 335 nM.
Still for that read-out and setting: the value for `CCC1CCC(=O)N1c1cc(-c2c(C)noc2C)cc2[nH]c(C3CC3)nc12` (stereo not drawn) [Compound 1020-137, 1-(2-Cyclopropyl-6-(3,5-dimethylisoxazol-4-yl)-1H-benzo[d]imidazol-4-yl)-5-ethylpyrrolidin-2-one] was 113 nM.
On the same count and under the same terms, the value for `Cc1noc(C)c1-c1cc(S(=O)(=O)NC2CCCC2)c2nc(Cc3ccccc3)[nH]c2c1` [Compound 1020-141, 2-Benzyl-N-cyclopentyl-6-(3,5-dimethylisoxazol-4-yl)-1H-benzo[d]imidazole-4-sulfonamide] was 887 nM; that for `Cc1noc(C)c1-c1cc(S(=O)(=O)NC2CCCC2)c2nc(NCC(F)(F)F)[nH]c2c1` [Compound 1020-148] was 495 nM.

Usually IC50 stands for the concentration at which inhibition is half-maximal.
